Tests used:
[1] = tested on: T1, human STING CBD-CTT (152-379); experiment: Thermal shift assay (TSA) binding to purified STING
T1 construct: made in house; host or cells: E. coli BL21 DE3 RIPL Codon Plus
Description: Purified STING protein was used as bait to identify binding compounds, using a thermal shift assay (TSA). A library containing 250,000 compounds (Enamine, Monmouth Jct., NJ) was surveyed. Compounds that bound to STING were then examined for their ability to inhibit STING signaling, see Examples 1-4 vide infra. In the presence of cytosolic DNA species, STING becomes activated to drive the transcription of cytokines such as type I IFN. Compounds binding to STING via TSA were subsequently examined for their ability prevent cytosolic DNA species from activating the type I interferon (IFN) promoter, using a live cell assay. This assay comprised immortalized human fibroblasts (hTERT) that were stably transfected with the type I IFN promoter driving luciferase as well as the CMV promoter driving SEAP (hTERT-pIFNβ-Glu). The ability of the small molecules to prevent activation of the type I IFN promoter and the transcription of luciferase, but not SEAP in response to cytosolic DNA species can be assessed. […]
Thermal High Throughput Screen: The denaturation profile of purified STING (STING152-379H) was calibrated using a fluorometer equipped with temperature control (a qPCR apparatus with 320 well capacity). […] Curves were measured for STING only and STING+small molecule, and ΔTm was calculated. […]

STING trafficking = experiment: Confocal analysis of STING trafficking in hTERT cells; assay type: cell-based, human; conditions: 6 hours after ISD transfection
Method: FIG. 1D are photographs showing confocal analysis for STING trafficking was performed at 6 hours after ISD transfection with/without W1, treatment same as FIG. 1A, according to an embodiment of the invention;
Immunofluorescence Microscopy: Cells were cultured and treated in their appropriate media on Lab-Tek II chamber slides. Cell were fixed with 4% paraformaldehyde for 15 minutes in at 37° C. and permeabilized with 0.05% Triton X-100 for 5 minutes at room temperature. Immunostaining was performed with rabbit-anti-STING polyclonal, rabbit-anti-IRF3 (Santa Cruz Biotechnology) or rabbit-anti-p65 (Cell Signaling) followed by fluorescence conjugated secondary antibodies (FITC-goat-anti-rabbit) (Invitrogen).

STING activation, Cxcl10 = experiment: STING activation in MEFs stimulated with ISD (qPCR of Cxcl10, Western blot, confocal); assay type: cell-based, mouse
Method: FIG. 1E are photographs showing Western blot analysis in murine fibroblasts (MEFs) treated the same as FIG. 1A, according to an embodiment of the invention;
FIG. 1F are photographs showing confocal analysis in MEFs treated the same as FIG. 1A, according to an embodiment of the invention;
MEFs were treated with W1 and then stimulated with cytoplasmic DNA (ISD) and examined Cxcl10 expression by qPCR and STING-dependent phosphorylation of TBK1 and IRF3.
Mouse embryonic fibroblasts (MEFs) were obtained from E13.5 embryos by a standard procedure. Bone Marrow Derived Macro-phages (BMDM) were isolated from hind-limb femurs of 8-10 weeks old WT and Trex1 KO (TKO) mice. The hematopoietic cells from the bone marrow were cultured in complete DMEM (Invitrogen) including 10 ng/ml of Mouse Recombinant Colony-Stimulating Factor (M-CSF, R&D Systems) for 10 to 14 days.
Quantitative Real time PCR (qPCR) Total RNA were reverse-transcribed using M-MLV Reverse Transcriptase (Promega). Real-time PCR was performed using Taqman Gene Expression Assay (Applied Biosystems) for innate immune genes and inflammatory cytokines.

Structure (SMILES): Cc1cc([N+](=O)[O-])ccc1S(=O)(=O)Nc1nc2cc(C(F)(F)F)ccc2[nH]1 [Compound W1, 2-methyl-4-nitro-N-[5-(trifluoromethyl)-1H-1,3-benzodiazol-2-yl]benzene-1-sulfonamide]
- binding to STING [1]: binds to STING
- STING trafficking (STING trafficking): effectively preventing STING trafficking
- production of STING-inducible cytokine Cxcl10 in response to ISD (STING activation, Cxcl10): dramatically decreased

Reference: US20240270737A1, “SMALL MOLECULAR INHIBITORS OF STING SIGNALING COMPOSITIONS AND METHODS OF USE” (STINGINN INC., priority 2021, published 2024)
